Here are results for 2 molecules from US20250290032A1, “DEVICE AND METHODS FOR ENGINEERING AND MEASURING FLATTENED 3D CELL CULTURES” (The Trustees of Indiana University, priority 2022, published 2025).

The test system of experiment [1] is flattened spinal cord organoids (fSCOs). The experiment is described as follows: MEA mean firing rate of flattened spinal cord organoids after capsaicin and short-term DAMGO. Format: cell-based, human. How it is done: (§1) After 10 days of growing, the flattened organoids as developed in accordance with the present disclosure were put into contact with bottom electrodes for measuring electrical and neuron activity. Recording of the spinal cord organoids' electrical activity was performed by using the Axion Mestro Edge (Axion inc). The spinal cord organoids were kept at 37° C. maintained by an internal heater and infused with 5% CO2. To determine the mean firing rate of a spinal cord organoid, the 3-minute MEA recording was repeated 5 times. The final mean firing rate of the organoid was calculated as the average mean firing rate of the 3 most consistent recordings among the 5 recordings. To reduce the variation brought by adding substance, the medium was also refreshed before measuring mean firing rate baseline. The substance was first diluted into ScM IV at 2× of the desired concentration, then half of the medium was replaced with the 2× concentrated solution to reach the desired concentration.
Capsaicin, a transient receptor potential cation channel subfamily V member 1 (TRPV1) agonist, was applied to fSCOs to model pain responses. […] Next, capsaicin and different concentrations of DAMGO together to test the pain relief effects of different opioids doses. […] As the opioids doses increase, the fSCOs' firing rates decreased, and the organoids reached minimal firing rates when the concentration was higher than 1 μM.

In a further experiment the target is T1, μ-opioid receptor (Homo sapiens, UniProt P35372).
T1 construct: confirm that the presence of neuron populations that express μ-opioid receptors; endogenous in cells; host or cells: flattened spinal cord organoids (fSCOs) derived from WA09 cells
T1 sequence (P35372 whole entry): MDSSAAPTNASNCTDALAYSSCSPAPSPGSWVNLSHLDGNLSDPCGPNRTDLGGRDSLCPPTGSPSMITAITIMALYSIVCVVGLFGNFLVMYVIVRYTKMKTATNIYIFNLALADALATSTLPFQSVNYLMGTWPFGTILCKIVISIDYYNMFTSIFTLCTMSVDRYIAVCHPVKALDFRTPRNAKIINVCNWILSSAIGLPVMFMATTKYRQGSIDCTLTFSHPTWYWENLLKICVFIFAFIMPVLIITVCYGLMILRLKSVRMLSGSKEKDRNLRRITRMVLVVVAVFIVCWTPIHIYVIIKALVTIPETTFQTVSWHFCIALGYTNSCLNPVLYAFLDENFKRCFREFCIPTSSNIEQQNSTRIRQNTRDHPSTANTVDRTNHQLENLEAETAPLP
Briefly: Immunofluorescence staining of μ-opioid receptor expression after prolonged administration. Format: cell-based. Particulars: prolonged DAMGO treatment group (500 nM, 8 days).

Experiment [2] concerns flattened spinal cord organoids (fSCOs). The experiment is described as follows: Chronic opioid induced hyperalgesia model: 8-day DAMGO administration, MEA mean firing rate response to capsaicin. Format: cell-based, human. How it is done: as §1
The fSCOs of the present disclosure were exposed to prolonged opioid administration to test the tolerance of the organoids to opioid induced hyperalgesia. The fSCOs were treated with DAMGO (500 nM) for 8 days and their responses to pain modulators were tested every other day. […] Organoids treated together with DAMGO and Naloxone, a μ-opioid receptor antagonist, were also tested to determine whether the Naloxone could reduce the opioid induced hyperalgesia.

Each structure is given as a SMILES string.

Experimental for μ-opioid receptor: To first validate that the flattened organoids could be utilized to model pain relief, first immunofluorescence staining was used to confirm that the presence of neuron populations that express μ-opioid receptors. Sectioned samples were placed onto charged glass slides and washed three times with 1×PBS. The samples were then treated with 3N hydrochloric acid (HCl) for 15 minutes for antigen retrieval. Following HCl treatment, the samples were washed again twice with 1×PBS and subjected to blocking (0.3% Triton-X100, 5% normal goat serum in 1×PBS) for 1 hour, followed by primary antibody incubation in a humidified chamber at 4° C. overnight. The samples were then washed 3 times with 1×PBS followed by secondary antibody incubation at room temperature for 1 hour before being washed and coverslipped with gold anti-fade mounting medium containing DAPI (Invitrogen).

For `COc1cc(CNC(=O)CCCC/C=C/C(C)C)ccc1O` [Capsaicin], the “% change From Baseline in Mean Firing Rate (Hz)” value in experiment [1] (Capsaicin) is on record as −0.1%. Moreover, the “increase of mean firing rate of organoids after stimulation by capsaicin” value in experiment [1] (capsaicin alone, fSCOs, MEA) is recorded as 35.4%.

Take `C[C@@H](NC(=O)[C@@H](N)Cc1ccc(O)cc1)C(=O)NCC(=O)N(C)[C@@H](Cc1ccccc1)C(=O)NCCO` [DAMGO]: on μ-opioid receptor, the μ-opioid receptor expression entry was “downregulated”. Moreover, in experiment [2] (after 8-day administration, Ctrl and DAMGO+Naloxone group), the “firing rate versus baseline after capsaicin plus low dose of DAMGO (100 nM)” value is “reduce the firing rate below baseline”. In experiment [2] (after 8-day administration, organoids in the DAMGO group (500 nM)), the “DAMGO needed to eliminate pain activity and return to activity baseline” value is listed as “more than 1 μM”. The “mean firing rate increase after capsaicin treatment” value in experiment [2] (day 6 of DAMGO (500 nM) treatment, control 48%) was determined as 73%; in experiment [2] (day 8 of DAMGO (500 nM) treatment, control 39%) it was 93%. Moreover, the “mean firing rate increase after capsaicin treatment versus control group” value in experiment [2] (first 4 days of DAMGO (500 nM) treatment) is on record as “no significant difference”. Moreover, the “% change From Baseline in Mean Firing Rate (Hz)” value is reported as “+0.3%” in experiment [1] (Capsaicin + 100 nM DAMGO), −0.2% in experiment [1] (Capsaicin + 500 nM DAMGO), −0.42% in experiment [1] (Capsaicin + 1 uM DAMGO) and −0.4% in experiment [1] (Capsaicin + 10 uM DAMGO). Further, the “DAMGO concentration at which organoids reached minimal firing rates” value in experiment [1] (capsaicin together with DAMGO) is recorded as “higher than 1 μM”. For the same molecule, in experiment [1] (capsaicin together with minimal dose of DAMGO (100 nM)), the “firing rate of spinal cord organoids versus baseline” value is listed as “dropped below baseline”.
